This passage reports IC50 results from patent US7642270B2, “5-oxo-5,8-dihydro-pyrido-pyrimidine as inhibitors of c-fms kinase” (Janssen Pharmaceutica N.V., priority 2005, dated 2010).

The target in one assay is c-fms (Homo sapiens, UniProt P07333). The assay is described as follows: c-fms autophosphorylation, fluorescence polarization competition immunoassay. Format: biochemical. Conditions: 10 nM c-fms, 1 mM ATP, 5 mM MgCl2, 45 min room temperature; averages of three independent measurements; read-out: c-fms Autophosphorylation IC50. As for the experimental part: Autophosphorylation, Fluorescence Polarization Competition Immunoassay
The assay buffer used was 100 mM 4-(2-hydroxyethyl)piperazine 1-ethanesulfonic acid (HEPES), pH 7.5, 1 mM 1,4-dithio-DL-threitol (DTT), 0.01% (v/v) Tween-20. Compounds were diluted in assay buffer containing 4% dimethylsulfoxide (DMSO) just prior to the assay. […] The kinase reaction was initiated by adding 2 μL of 5 mM ATP (Sigma) in assay buffer. The final concentrations in the assay were 10 nM c-fms, 1 mM ATP, 5 mM MgCl2, 2% DMSO. Control reactions were ran in each plate: in positive and negative control wells, assay buffer (made 4% in DMSO) was substituted for the compound; in addition, positive control wells received 1.2 μL of 50 mM ethylenediaminetetraaceticacid (EDTA).
The plates were incubated at room temperature for 45 min. At the end of the incubation, the reaction was quenched with 1.2 μL of 50 mM EDTA (EDTA was not added to the positive control wells at this point; see above). Following a 5-min incubation, each well received 10 μL of a 1:1:3 mixture of anti-phosphotyrosine antibody, 10×, PTK green tracer, 10× (vortexed), FP dilution buffer, respectively (all from PanVera, cat. # P2837). The plate was covered, incubated for 30 min at room temperature and the fluorescence polarization was read on the Analyst.
The IC50 values shown in Table 1 are averages of three independent measurements.
Background: Fluorescence polarisation rises when a labelled molecule tumbles more slowly, as on binding a larger partner.

Another assay deals with CSF-1R (Homo sapiens, UniProt P07333). The assay is described as follows: Peptide (non-phosphorylated) assay: fluorescence polarization competition immunoassay of CSF-1R phosphorylation of synthetic CSF-1R555-568 peptide. The settings on record: 0.7 nM CSF-1R, 308 μM […], 1 mM ATP, 5 mM MgCl2, 80 min room temperature; mean of at least three determinations; read-out: c-fms Peptide IC50. Format: biochemical. As for the experimental part: Peptide (Non-Phosphorylated) Assay
The kinase reaction was initiated by adding 1 μL of 10 mM ATP in assay buffer. […] Positive and negative control wells were included on each plate, where 4% DMSO in assay buffer was substituted for the compound; in addition, positive control wells received 1.2 μL of 50 mM EDTA before the start of the reaction.
The plates were covered and incubated at room temperature for 80 min. Reactions were stopped by addition of 1.2 μL of 50 mM EDTA. Each well then received 10 μL of a 1:1:3 mixture of 10× anti-phosphotyrosine antibody, 10×PTK green tracer, and FP dilution buffer, respectively (Cat. # P2837, Invitrogen, Carlsbad, Calif.). The plates were covered, incubated for 30 min at room temperature, and the fluorescence polarization was read on an Analyst plate reader (Molecular Devices).

c-fms, sequence (P07333 20-972): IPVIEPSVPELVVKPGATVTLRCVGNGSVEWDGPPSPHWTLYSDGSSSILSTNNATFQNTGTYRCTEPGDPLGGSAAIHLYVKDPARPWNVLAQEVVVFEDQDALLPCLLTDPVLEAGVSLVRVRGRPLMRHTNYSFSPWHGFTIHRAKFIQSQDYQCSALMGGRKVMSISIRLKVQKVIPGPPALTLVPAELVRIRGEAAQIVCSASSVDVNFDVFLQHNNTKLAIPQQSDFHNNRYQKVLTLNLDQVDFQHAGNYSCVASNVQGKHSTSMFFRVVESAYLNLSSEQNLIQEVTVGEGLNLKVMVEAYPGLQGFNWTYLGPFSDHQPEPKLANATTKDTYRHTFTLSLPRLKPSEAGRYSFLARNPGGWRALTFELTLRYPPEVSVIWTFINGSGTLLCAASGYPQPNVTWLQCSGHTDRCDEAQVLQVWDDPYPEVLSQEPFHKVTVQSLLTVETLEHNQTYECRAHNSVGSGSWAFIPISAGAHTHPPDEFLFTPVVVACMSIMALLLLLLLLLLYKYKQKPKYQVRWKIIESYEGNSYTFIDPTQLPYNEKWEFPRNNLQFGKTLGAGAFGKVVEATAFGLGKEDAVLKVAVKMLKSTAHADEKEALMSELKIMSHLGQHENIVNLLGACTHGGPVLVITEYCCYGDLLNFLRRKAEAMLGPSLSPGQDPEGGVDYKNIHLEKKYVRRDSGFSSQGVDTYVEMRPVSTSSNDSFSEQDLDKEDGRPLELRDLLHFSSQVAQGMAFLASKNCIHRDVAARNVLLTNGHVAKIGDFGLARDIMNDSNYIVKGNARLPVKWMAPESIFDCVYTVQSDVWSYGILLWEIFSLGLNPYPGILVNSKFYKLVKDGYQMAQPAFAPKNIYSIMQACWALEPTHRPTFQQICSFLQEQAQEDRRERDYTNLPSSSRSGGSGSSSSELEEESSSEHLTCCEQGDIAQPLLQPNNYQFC
CSF-1R, sequence (P07333 20-972): as above

With `CN1CCN(c2ccc(Nc3ncc4c(=O)c(C(N)=O)cn(-c5ccc6c(c5)CCC6)c4n3)cc2)CC1` [Cpd 7, 8-Indan-5-yl-2-[4-(4-methyl-piperazin-1-yl)-phenylamino]-5-oxo-5,8-dihydro-pyrido[2,3-d]pyrimidine-6-carboxylic acid amide], the IC50 (in general, the concentration needed to halve the response being measured) on c-fms amounted to 13 nM; at CSF-1R, 3.9 nM.

As to `CN(C)CC(O)COc1ccc(Nc2ncc3c(=O)c(C(N)=O)cn(-c4ccc5c(c4)CCC5)c3n2)cc1` (stereo not shown) [Cpd 10, 2-[4-(3-Dimethylamino-2-hydroxy-propoxy)-phenylamino]-8-indan-5-yl-5-oxo-5,8-dihydro-pyrido[2,3-d]pyrimidine-6-carboxylic acid amide], the IC50 at c-fms is 13 nM; at CSF-1R, 2.7 nM.

As to `CNC(=O)c1cn(-c2ccc3c(c2)CCC3)c2nc(Nc3ccc(OCC(O)CN(C)C)cc3)ncc2c1=O` (stereo not shown) [Cpd 11, 2-[4-(3-Dimethylamino-2-hydroxy-propoxy)-phenylamino]-8-indan-5-yl-5-oxo-5,8-dihydro-pyrido[2,3-d]pyrimidine-6-carboxylic acid methylamide], the IC50 was determined as 46 nM at c-fms and 5.6 nM at CSF-1R.

Consider `CN(C)c1cccc(Nc2ncc3c(=O)c(C(N)=O)cn(-c4ccc5c(c4)CCC5)c3n2)c1` [Cpd 16, 2-(3-Dimethylamino-phenylamino)-8-indan-5-yl-5-oxo-5,8-dihydro-pyrido[2,3-d]pyrimidine-6-carboxylic acid amide], for which the IC50 came out at 12 nM at c-fms and 4.3 nM at CSF-1R.

Take `CN1CCN(Cc2cccc(Nc3ncc4c(=O)c(C(N)=O)cn(-c5ccc6c(c5)CCC6)c4n3)c2)CC1` [Cpd 23, 8-Indan-5-yl-2-[3-(4-methyl-piperazin-1-ylmethyl)-phenylamino]-5-oxo-5,8-dihydro-pyrido[2,3-d]pyrimidine-6-carboxylic acid amide]: the IC50 at c-fms was found to be 14 nM; at CSF-1R, 1.5 nM.

In the case of `CNC(=O)c1cn(-c2ccc3c(c2)CCC3)c2nc(Nc3ccc(CCN4CCOCC4)cc3)ncc2c1=O` [Cpd 28, 8-Indan-5-yl-2-[4-(2-morpholin-4-yl-ethyl)-phenylamino]-5-oxo-5,8-dihydro-pyrido[2,3-d]pyrimidine-6-carboxylic acid methyl amide], the IC50 on c-fms was 30 nM; at CSF-1R, 1.6 nM.

As to `CC1CN(c2ccc(Nc3ncc4c(=O)c(C(N)=O)cn(-c5ccc6c(c5)CCC6)c4n3)cc2)CC(C)N1` (stereo not shown) [Cpd 43, 2-[4-(3,5-Dimethyl-piperazin-1-yl)-phenylamino]-8-indan-5-yl-5-oxo-5,8-dihydro-pyrido[2,3-d]pyrimidine-6-carboxylic acid amide], on CSF-1R, the IC50 came to 0.58 nM.

Regarding `CNC(=O)c1cn(-c2ccc3c(c2)CCC3)c2nc(Nc3ccc(N4CC(C)NC(C)C4)cc3)ncc2c1=O` (stereo not shown) [Cpd 44, 2-[4-(3,5-Dimethyl-piperazin-1-yl)-phenylamino]-8-indan-5-yl-5-oxo-5,8-dihydro-pyrido[2,3-d]pyrimidine-6-carboxylic acid methyl amide], the IC50 on c-fms was found to be 8 nM; on CSF-1R, 0.53 nM.

With `CNC(=O)c1cn(-c2ccc3c(c2)CCC3)c2nc(Nc3ccc(CCN4CCN(C)CC4)cc3)ncc2c1=O` [Cpd 47, 8-Indan-5-yl-2-{4-[2-(4-methyl-piperazin-1-yl)-ethyl]-phenylamino}-5-oxo-5,8-dihydro-pyrido[2,3-d]pyrimidine-6-carboxylic acid methyl amide], the values for the IC50 at c-fms and on CSF-1R were 15 nM and 1.3 nM, respectively.

With `NC(=O)c1cn(-c2ccc3c(c2)CCC3)c2nc(Nc3ccc(C4CCNCC4)cc3)ncc2c1=O` [Cpd 49, 8-Indan-5-yl-5-oxo-2-(4-piperidin-4-yl-phenylamino)-5,8-dihydro-pyrido[2,3-d]pyrimidine-6-carboxylic acid amide], the half-inhibitory concentration (IC50) on c-fms worked out at 8 nM; at CSF-1R, 0.49 nM.

`CNC(=O)c1cn(-c2ccc3c(c2)CCC3)c2nc(Nc3ccc(C4CCNCC4)cc3)ncc2c1=O` [Cpd 50, 8-Indan-5-yl-5-oxo-2-(4-piperidin-4-yl-phenylamino)-5,8-dihydro-pyrido[2,3-d]pyrimidine-6-carboxylic acid methyl amide]: the IC50 at c-fms is 15 nM; on CSF-1R, 0.97 nM.

On to `NC(=O)c1cn(-c2ccc3c(c2)CCC3)c2nc(Nc3cccc(N4CCNCC4)c3)ncc2c1=O` [Cpd 52, 8-Indan-5-yl-5-oxo-2-(3-piperazin-1-yl-phenylamino)-5,8-dihydro-pyrido[2,3-d]pyrimidine-6-carboxylic acid amide], for which the results for the IC50 at c-fms and on CSF-1R were 5 nM and 0.42 nM, respectively.

Regarding `CNC(=O)c1cn(-c2ccc3c(c2)CCC3)c2nc(Nc3cccc(N4CCNCC4)c3)ncc2c1=O` [Cpd 53, 8-Indan-5-yl-5-oxo-2-(3-piperazin-1-yl-phenylamino)-5,8-dihydro-pyrido[2,3-d]pyrimidine-6-carboxylic acid methyl amide], the values for the IC50 at c-fms and on CSF-1R were 8 nM and 0.46 nM, respectively.

`CCNC(=O)c1cn(-c2ccc3c(c2)CCC3)c2nc(Nc3cccc(N4CCNCC4)c3)ncc2c1=O` [Cpd 54, 8-Indan-5-yl-5-oxo-2-(3-piperazin-1-yl-phenylamino)-5,8-dihydro-pyrido[2,3-d]pyrimidine-6-carboxylic acid ethyl amide]: the values for the IC50 on c-fms and on CSF-1R were 11 nM and 1.1 nM, respectively.

For `CC1CN(c2cccc(Nc3ncc4c(=O)c(C(N)=O)cn(-c5ccc6c(c5)CCC6)c4n3)c2)CC(C)N1` (stereo not shown) [Cpd 55, 2-[3-(3,5-Dimethyl-piperazin-1-yl)-phenylamino]-8-indan-5-yl-5-oxo-5,8-dihydro-pyrido[2,3-d]pyrimidine-6-carboxylic acid amide], the IC50 at c-fms is 6 nM; on CSF-1R, 0.51 nM.

In the case of `CNC(=O)c1cn(-c2ccc3c(c2)CCC3)c2nc(Nc3cccc(N4CC(C)NC(C)C4)c3)ncc2c1=O` (stereo not shown) [Cpd 56, 2-[3-(3,5-Dimethyl-piperazin-1-yl)-phenylamino]-8-indan-5-yl-5-oxo-5,8-dihydro-pyrido[2,3-d]pyrimidine-6-carboxylic acid methyl amide], the IC50 on c-fms amounted to 10 nM; at CSF-1R it was 1.1 nM.

As to `CNC(=O)c1cn(-c2ccc3c(c2)CCC3)c2nc(Nc3cccc(C(=O)N(C)C)c3)ncc2c1=O` [Cpd 80, 2-(3-Dimethylcarbamoyl-phenylamino)-8-indan-5-yl-5-oxo-5,8-dihydro-pyrido[2,3-d]pyrimidine-6-carboxylic acid methylamide], the IC50 at c-fms was 74 nM.

Consider `CCNC(=O)c1cn(-c2ccc3c(c2)CCC3)c2nc(Nc3cccc(C(=O)N(C)C)c3)ncc2c1=O` [Cpd 81, 2-(3-Dimethylcarbamoyl-phenylamino)-8-indan-5-yl-5-oxo-5,8-dihydro-pyrido[2,3-d]pyrimidine-6-carboxylic acid ethylamide], for which the IC50 at c-fms worked out at 110 nM.

Consider `CN1CCN(c2ccc(Nc3ncc4c(=O)c(C(N)=O)cn(C5CC6CCC5C6)c4n3)cc2)CC1` (stereo not shown) [Cpd 82, 8-Bicyclo[2.2.1]hept-2-yl-2-[4-(4-methyl-piperazin-1-yl)-phenylamino]-5-oxo-5,8-dihydro-pyrido[2,3-d]pyrimidine-6-carboxylic acid amide], for which, on c-fms, the IC50 worked out at 81 nM.

Take `CCNC(=O)c1cn(C2CC3CCC2C3)c2nc(Nc3ccc(N4CCN(C)CC4)cc3)ncc2c1=O` (stereo not shown) [Cpd 83, 8-Bicyclo[2.2.1]hept-2-yl-2-[4-(4-methyl-piperazin-1-yl)-phenylamino]-5-oxo-5,8-dihydro-pyrido[2,3-d]pyrimidine-6-carboxylic acid ethylamide]: the IC50 on c-fms was determined as 300 nM.

Consider `CCNC(=O)c1cn(-c2ccc3c(c2)CCC3)c2nc(Nc3ccc(CN4CCN(C)CC4)cc3)ncc2c1=O` [Cpd 84, 8-Indan-5-yl-2-[4-(4-methyl-piperazin-1-ylmethyl)-phenylamino]-5-oxo-5,8-dihydro-pyrido[2,3-d]pyrimidine-6-carboxylic acid ethylamide], for which the IC50 on c-fms was determined as 32 nM.

For `CNC(=O)c1cn(Cc2ccccc2)c2nc(Nc3ccc(N4CCN(C)CC4)cc3)ncc2c1=O` [Cpd 85, 8-Benzyl-2-[4-(4-methyl-piperazin-1-yl)-phenylamino]-5-oxo-5,8-dihydro-pyrido[2,3-d]pyrimidine-6-carboxylic acid methylamide], at c-fms, the IC50 turned out to be 420 nM.
